Experimental data reported in PubChem BioAssay AID1996.
≈ marks a conversion by molar mass, not a printed value.

Details: buffer; pH 7.4; 200.0 µM

| solubility kinetic [µg/mL] | Structure (SMILES) |
| --- | --- |
| > 48.2 | CN(CC(=O)Nc1ccc(F)cc1)CC(=O)NC1CCCCC1 |
| > 49.4 | Cc1ccc(F)cc1NC(=O)c1ccc(OCC2CCCO2)cc1 (stereo not drawn) |
| > 41 | Cc1ccccc1OCC(=O)OCC(=O)c1ccc[nH]1 |
| 18.4 (≈ 53.4 µM) | COc1cc2c(cc1OC)C(C)N(C(=O)Nc1ccc(F)cc1)CC2 (stereo not drawn) |
| 43.5 (≈ 137 µM) | CC(C)(C)CN1CCN(CCCc2ccccc2)C(CCO)C1 (stereo not drawn) |
| 6.4 (≈ 20.3 µM) | Cc1cnc(NC(=O)c2sc(Nc3ccccc3)nc2N)o1 |
| 4.4 (≈ 14.5 µM) | CCC(CC)C(=O)c1c[nH]c(C(=O)NCc2cccs2)c1 |
| 3.8 (≈ 14.1 µM) | CCOc1ccc(CNC(=O)Nc2ccccc2)cc1 |
| < 0.2 | COc1ccc(NC(=O)Nc2cccc(Cl)c2Cl)c(OC)n1 |
| > 52.1 | CCOC(=O)CNC(=O)N1CCCC(N(C)CCc2ccccc2)C1 (stereo not drawn) |
| 41.9 (≈ 132 µM) | Cc1cccc(NS(=O)(=O)c2ccc3[nH]c(=O)oc3c2)c1C |
| 40.8 | CCN(CC)C(=N)N1c2ccccc2CCC1C.Cl (stereo not drawn) |
| > 46.9 | CCc1nnc(NC(=O)C2CSC3(C)CCC(=O)N23)s1 (stereo not drawn) |
| > 53.9 | COc1ccc(CCNC(=O)CN2C(=O)NC3(CCCCC3)C2=O)cc1 |
| 0.4 (≈ 1.39 µM) | Cc1ccc(C)c(OCCNc2ccc([N+](=O)[O-])cn2)c1 |
| > 32.4 | Cn1cnc2c(=O)sc3ccccc3c21 |
| 5.7 (≈ 18.4 µM) | O=C(Nc1ccc2oc(=O)ccc2c1)c1ccccc1[N+](=O)[O-] |
| 0.5 (≈ 1.5 µM) | Cc1cccc(NC(=O)c2cccc(NC(=O)c3ccco3)c2)c1C |
| 44.4 (≈ 116 µM) | C=CCS(=O)(=O)N1CCCC(N(C)CCc2ccc(OC)c(OC)c2)C1 (stereo not drawn) |

| solubility kinetic [µg/mL] | Structure (SMILES) |
| --- | --- |
| 58.8 (≈ 146 µM) | O=C(NCCCN1CCCC1=O)c1ccc(NS(=O)(=O)c2ccccc2)cc1 |
| 36.5 (≈ 149 µM) | O=C(Nc1ncccn1)c1ccc([N+](=O)[O-])cc1 |
| 4.9 (≈ 10.5 µM) | CC(=O)c1ccc(N2CCN(C(=O)c3ccc(S(=O)(=O)NCc4ccco4)cc3)CC2)cc1 |
| > 48.2 | CCN(CC)CCNC(=O)C(=O)Nc1ccc(C(=O)OC)cc1 |
| 9.5 (≈ 28.1 µM) | CC(=O)Nc1cccc(C(=O)OCN2C(=O)c3ccccc3C2=O)c1 |
| 7.3 (≈ 16.1 µM) | CC(=O)NCc1ccc(-c2csc(NC(=O)CCc3nc4ccccc4c(=O)[nH]3)n2)s1 |
| 1.2 (≈ 3.9 µM) | COc1cccc(/C=C/c2ccc3cccc(O)c3n2)c1OC |
| > 45.6 | Nc1nc(NCc2ccco2)nc(N2CCCC2)c1[N+](=O)[O-] |
| < 0.7 | Cc1ccc(N2C(=O)C3C4C=CC(CC4)C3C2=O)cc1Br (stereo not drawn) |
| > 45.7 | CCc1cccc(C)c1NC(=O)CSc1nc(C)c(C)o1 |
| > 37.4 | CCC(C)(C)NC(=O)c1ccc2c(c1)OCCO2 |
| > 46.7 | CCCCN(C(=O)Oc1ccccc1)C1CCS(=O)(=O)C1 (stereo not drawn) |
| > 40.4 | O=C1c2cccnc2C(=O)N1c1cccc([N+](=O)[O-])c1 |
| 38.5 (≈ 142 µM) | C=CCNC(=S)NC(=O)c1csc([N+](=O)[O-])c1 |
| 40.8 (≈ 138 µM) | Cc1ccc(C(=O)NC(C)c2ccc(-n3ccnc3)cc2)o1 (stereo not drawn) |
| 28.6 (≈ 92.8 µM) | CNC(=O)c1ccccc1Nc1ccc(SC(F)F)cc1 |
| 14.9 (≈ 49.3 µM) | N#Cc1cccc2cccc(S(=O)(=O)N3CCOCC3)c12 |
| 3.4 (≈ 9.87 µM) | CC1=C(C(=O)OCC2CCCCC2)C(c2ccc(O)cc2)NC(=O)N1 (stereo not drawn) |
| 24.1 (≈ 73.1 µM) | CC1CCCC(NC(=O)CSc2ncnc3ccccc23)C1C (stereo not drawn) |

| solubility kinetic [µg/mL] | Structure (SMILES) |
| --- | --- |
| > 42 | O=C(CSC1=NCCN1)Nc1ccccc1[N+](=O)[O-] |
| 21.8 (≈ 68.7 µM) | COc1ccc(Nc2nc(OC)nc(N3CCOCC3)n2)cc1 |
| 52.8 (≈ 138 µM) | COc1ccc(Cl)cc1S(=O)(=O)NC(C)C(=O)NCc1ccccn1 (stereo not drawn) |
| 1.9 (≈ 6.78 µM) | CCc1nc2sc3c(c2c(=S)[nH]1)CC(C)(C)OC3 |
| > 54.6 | COc1cc([N+](=O)[O-])ccc1NC(=O)COC(=O)c1c[nH]c(=O)[nH]c1=O |
| > 66.7 | CC1Cc2ccccc2N1S(=O)(=O)c1cccc(C(=O)OCC(=O)N2CCOCC2)c1 (stereo not drawn) |
| > 43.5 | NC1=NC(=O)C(Cc2ccc(OC(F)(F)F)cc2)S1 (stereo not drawn) |
| 13 | Cc1cc2c(Nc3ccccc3)ncnc2s1.Cl |
| 19.3 (≈ 35.9 µM) | CCOc1ccc(S(=O)(=O)N2CCN(C(=O)c3ccc(C)c(S(=O)(=O)N4CCOCC4)c3)CC2)cc1 |
| > 37.1 | O=C(COc1ccccc1)N1CCCCCCC1 |
| < 0.2 | COc1cccc(NC(=O)Nc2ccc(Br)cn2)c1 |
| 30.8 (≈ 123 µM) | Cc1cc(OCCn2ccnc2)cc(C)c1Cl |
| > 44 | CC(=O)OC(C(=O)NC1CCCCC1)c1ccccc1F (stereo not drawn) |
| > 71.8 | O=C(O)CSc1nnc(-c2cccc(S(=O)(=O)N3CCOCC3)c2)n1-c1ccc(F)cc1 |
| 41.6 (≈ 128 µM) | COc1ccc(OC)c(S(=O)(=O)NCCCn2ccnc2)c1 |
| 0.9 (≈ 2.77 µM) | CCn1c(=O)c2ccccc2n(Cc2cccc([N+](=O)[O-])c2)c1=O |
| 17.8 (≈ 57.3 µM) | C=C(C)C1CC=C(CN2CCN(Cc3ccccc3)CC2)CC1 (stereo not drawn) |
| 25.7 (≈ 76.4 µM) | CC1CCCCC1NC(=O)CN1C(=O)c2ccccc2S1(=O)=O (stereo not drawn) |

| Structure (SMILES) | solubility kinetic [µg/mL] |
| --- | --- |
| Cc1ccc(OC(F)F)c(N2C(=O)C3C4CCC(O4)C3C2=O)c1 (stereo not drawn) | > 48.5 |
| O=[N+]([O-])c1ccc(NC2CCCC2)c2ccncc12 | 3 (≈ 11.7 µM) |
